From patent US9113629B2, “4-amino-6-(4-substituted-phenyl)-picolinates and 6-amino-2-(4-substituted-phenyl)-pyrimidine-4-carboxylates and their use as herbicides” (DOW AGROSCIENCES LLC, priority 2013, dated 2015)

Columns and labels:
Test in all cases: Post-emergent Test III, herbicidal activity in wheat and barley
Type in all cases: in vivo
[1] = system: HORSS: barley, including spring and winter (Hordeum vulgare); details: Table 8, 21 d; for pest or weed control at 35 g/ha / pest or weed control at 70 g/ha: Hordeum vulgare, post-emergence, 504 h, post-emergent, read-out: Visual Growth Reduction (%) 21 Days After Application HORSS; for pest or weed control at 35 g/ha: 35 g ai/ha; for pest or weed control at 70 g/ha: 70 g ai/ha; for GR20 HORSS: dose for 20 percent growth reduction, probit analysis
Procedure, shortened: (§1)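 Plants at the second to third true-leaf stage, grown in a greenhouse at about 18/17 °C with a 14 h photoperiod, were sprayed post-emergence at 187 L/ha with the high rate and ½× to 1/16× serial dilutions in an acetone/DMSO/crop-oil/surfactant carrier. Injury was rated visually at 21 d on a 0–100% scale, and GR20–GR90 were derived by probit analysis.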

[2] = system: KCHSC: kochia (Kochia scoparia); details: Table 8, 21 d; for pest or weed control at 35 g/ha / pest or weed control at 70 g/ha: Bassia scoparia, post-emergence, 504 h, post-emergent, read-out: Visual Growth Reduction (%) 21 Days After Application KCHSC; for pest or weed control at 35 g/ha: 35 g ai/ha; for pest or weed control at 70 g/ha: 70 g ai/ha; for GR50 KCHSC: dose for 50 percent growth reduction; for GR50 KCHSC / GR80 KCHSC: probit analysis; for GR80 KCHSC: dose for 80 percent growth reduction
Procedure, shortened: as §1

LAMSS = details: Table 8, 21 d; for GR50 LAMSS: dose for 50 percent growth reduction; for GR50 LAMSS / GR80 LAMSS: probit analysis; for GR80 LAMSS: dose for 80 percent growth reduction; for pest or weed control at 35 g/ha / pest or weed control at 70 g/ha: post-emergence, 504 h, post-emergent, read-out: Visual Growth Reduction (%) 21 Days After Application LAMSS; for pest or weed control at 35 g/ha: 35 g ai/ha; for pest or weed control at 70 g/ha: 70 g ai/ha
Procedure, shortened: as §1

[3] = system: MATSS: scented mayweed (Matricaria chamomilla), pineappleweed (Matricaria matricarioides); details: Table 8, 21 d; for pest or weed control at 35 g/ha / pest or weed control at 70 g/ha: Matricaria chamomilla, post-emergence, 504 h, post-emergent, read-out: Visual Growth Reduction (%) 21 Days After Application MATSS; for pest or weed control at 35 g/ha: 35 g ai/ha; for pest or weed control at 70 g/ha: 70 g ai/ha; for GR50 MATSS: dose for 50 percent growth reduction; for GR50 MATSS / GR80 MATSS: probit analysis; for GR80 MATSS: dose for 80 percent growth reduction
Procedure, shortened: as §1

[4] = system: SASKR: Russian thistle (Salsola iberica); details: Table 8, 21 d; for pest or weed control at 35 g/ha / pest or weed control at 70 g/ha: Salsola tragus, post-emergence, 504 h, post-emergent, read-out: Visual Growth Reduction (%) 21 Days After Application SASKR; for pest or weed control at 35 g/ha: 35 g ai/ha; for pest or weed control at 70 g/ha: 70 g ai/ha; for GR50 SASKR: dose for 50 percent growth reduction; for GR50 SASKR / GR80 SASKR: probit analysis; for GR80 SASKR: dose for 80 percent growth reduction
Procedure, shortened: as §1

[5] = system: TRZSS: wheat, including spring and winter (Triticum aestivum); details: Table 8, 21 d; for GR20 TRZSS: dose for 20 percent growth reduction, probit analysis; for pest or weed control at 35 g/ha / pest or weed control at 70 g/ha: Triticum aestivum, post-emergence, 504 h, post-emergent, read-out: Visual Growth Reduction (%) 21 Days After Application TRZSS; for pest or weed control at 35 g/ha: 35 g ai/ha; for pest or weed control at 70 g/ha: 70 g ai/ha
Procedure, shortened: as §1

[6] = system: VERPE: bird's-eye speedwell (veronica persica); details: Table 8, 21 d; for GR50 VERPE: dose for 50 percent growth reduction; for GR50 VERPE / GR80 VERPE: probit analysis; for GR80 VERPE: dose for 80 percent growth reduction; for pest or weed control at 35 g/ha / pest or weed control at 70 g/ha: Veronica persica, post-emergence, 504 h, post-emergent, read-out: Visual Growth Reduction (%) 21 Days After Application VERPE; for pest or weed control at 35 g/ha: 35 g ai/ha; for pest or weed control at 70 g/ha: 70 g ai/ha
Procedure, shortened: as §1

[7] = system: VIOSS: wild pansy (Viola tricolor), field violet (Viola arvensis); details: Table 8, 21 d; for GR50 VIOSS: dose for 50 percent growth reduction; for GR50 VIOSS / GR80 VIOSS: probit analysis; for GR80 VIOSS: dose for 80 percent growth reduction; for pest or weed control at 35 g/ha / pest or weed control at 70 g/ha: Viola tricolor, post-emergence, 504 h, post-emergent, read-out: Visual Growth Reduction (%) 21 Days After Application VIOSS; for pest or weed control at 35 g/ha: 35 g ai/ha; for pest or weed control at 70 g/ha: 70 g ai/ha
Procedure, shortened: as §1

COc1c(N)nc(-c2ccc(Br)c(F)c2)nc1C(=O)O [Compound 113, 6-Amino-2-(4-bromo-3-fluorophenyl)-5-methoxypyrimidine-4-carboxylic acid]
pest or weed control at 35 g/ha [1]: 85 to 94% | pest or weed control at 70 g/ha [1]: 95 to 100% | GR20 HORSS [1]: 1 g ai/ha | pest or weed control at 35 g/ha [2]: 95 to 100% | pest or weed control at 70 g/ha [2]: 95 to 100% | GR50 KCHSC [2]: 3 g ai/ha | GR80 KCHSC [2]: 10 g ai/ha | GR50 LAMSS (LAMSS): 1 g ai/ha | GR80 LAMSS (LAMSS): 4 g ai/ha | pest or weed control at 35 g/ha (LAMSS): 95 to 100% | pest or weed control at 70 g/ha (LAMSS): 95 to 100% | pest or weed control at 35 g/ha [3]: 85 to 94% | pest or weed control at 70 g/ha [3]: 95 to 100% | GR50 MATSS [3]: 4 g ai/ha | GR80 MATSS [3]: 15 g ai/ha | pest or weed control at 35 g/ha [4]: 75 to 84% | pest or weed control at 70 g/ha [4]: 85 to 94% | GR50 SASKR [4]: 5 g ai/ha | GR80 SASKR [4]: 36 g ai/ha | GR20 TRZSS [5]: 1 g ai/ha | pest or weed control at 35 g/ha [5]: 85 to 94% | pest or weed control at 70 g/ha [5]: 85 to 94% | GR50 VERPE [6]: 3 g ai/ha | GR80 VERPE [6]: 18 g ai/ha | pest or weed control at 35 g/ha [6]: 85 to 94% | pest or weed control at 70 g/ha [6]: 85 to 94% | GR50 VIOSS [7]: 4 g ai/ha | GR80 VIOSS [7]: 11 g ai/ha | pest or weed control at 35 g/ha [7]: 95 to 100% | pest or weed control at 70 g/ha [7]: 95 to 100%

Nc1cc(-c2ccc(Br)c(F)c2)nc(C(=O)O)c1Cl [Compound 110, 4-Amino-6-(4-bromo-3-fluorophenyl)-3-chloropicolinic acid]
pest or weed control at 35 g/ha [1]: 85 to 94% | pest or weed control at 70 g/ha [1]: 95 to 100% | GR20 HORSS [1]: 1 g ai/ha | pest or weed control at 35 g/ha [2]: 95 to 100% | pest or weed control at 70 g/ha [2]: 95 to 100% | GR50 KCHSC [2]: 1 g ai/ha | GR80 KCHSC [2]: 1 g ai/ha | GR50 LAMSS (LAMSS): 1 g ai/ha | GR80 LAMSS (LAMSS): 1 g ai/ha | pest or weed control at 35 g/ha (LAMSS): 95 to 100% | pest or weed control at 70 g/ha (LAMSS): 95 to 100% | pest or weed control at 35 g/ha [3]: 60 to 74% | pest or weed control at 70 g/ha [3]: 85 to 94% | GR50 MATSS [3]: 10 g ai/ha | GR80 MATSS [3]: 37 g ai/ha | pest or weed control at 35 g/ha [4]: 75 to 84% | pest or weed control at 70 g/ha [4]: 85 to 94% | GR50 SASKR [4]: 1 g ai/ha | GR80 SASKR [4]: 30 g ai/ha | GR20 TRZSS [5]: 1 g ai/ha | pest or weed control at 35 g/ha [5]: 85 to 94% | pest or weed control at 70 g/ha [5]: 85 to 94% | GR50 VERPE [6]: >140 g ai/ha | GR80 VERPE [6]: >140 g ai/ha | pest or weed control at 35 g/ha [6]: 0 to 29% | pest or weed control at 70 g/ha [6]: 0 to 29% | GR50 VIOSS [7]: 51 g ai/ha | GR80 VIOSS [7]: 144 g ai/ha | pest or weed control at 35 g/ha [7]: 30 to 44% | pest or weed control at 70 g/ha [7]: 60 to 74%
